Here are results for ten molecules from US20110039879A1, “METHODS FOR INCREASING WHITE BLOOD CELLS” (FibroGen ,Inc., priority 2007, published 2011).

Common to all, as to type: in vivo, Swiss-Webster mice
For experiment [1], the system named is total white blood cell (WBC). Description: Total white blood cells by complete blood count on day 8, dosing day 1, 3, 5. The settings on record: Mus musculus, 192 h, mice, oral gavage, measured on day 8, read-out: Total WBC % Increase Over Control; for change in vivo at 100 mg/kg: 100 mg/kg on day 1, day 3 and day 5; for change in vivo at 200 mg/kg: 200 mg/kg on day 1, day 3 and day 5; for change in vivo at 60 mg/kg: 60 mg/kg on day 1, day 3 and day 5. The procedure, abridged:
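Male Swiss-Webster mice received test compound by oral gavage with a ball-tipped gavage needle on day 1, day 3 and day 5. On day 8, 200 μl of blood was collected and total white blood cell levels were determined by complete blood count on a CellDyn cell analyzer (Abbott Laboratories), expressed as percent change relative to control.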

For experiment [2], the system named is neutrophils. Description: Neutrophils by complete blood count on day 8, dosing day 1, 3, 5. To be noted: Mus musculus, Neutrophil, 192 h, mice, oral gavage, measured on day 8, read-out: Neutrophils % Increase Over Control; for change in vivo at 100 mg/kg: 100 mg/kg on day 1, day 3 and day 5; for change in vivo at 200 mg/kg: 200 mg/kg on day 1, day 3 and day 5; for change in vivo at 60 mg/kg: 60 mg/kg on day 1, day 3 and day 5. In a few lines: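 Male Swiss-Webster mice received test compounds by oral gavage with a ball-tipped gavage needle on day 1, day 3 and day 5. On day 8, 200 μl blood samples were taken and neutrophil levels were determined by complete blood count on a CellDyn cell analyzer (Abbott Laboratories), expressed as percent increase over control.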

In experiment [3] the test system is lymphocytes. Description: Lymphocytes by complete blood count on day 8, dosing day 1, 3, 5. The settings on record: mice, oral gavage, measured on day 8; for change in vivo at 100 mg/kg / change in vivo at 200 mg/kg / change in vivo at 60 mg/kg: Mus musculus, Lymphocyte, 192 h, read-out: Lymphocytes % Increase Over Control. The procedure, abridged:
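Male Swiss-Webster mice received the compounds by oral gavage through a ball-tipped gavage needle on days 1, 3 and 5. On day 8, 200 μl blood samples were drawn and lymphocyte counts were obtained by complete blood count on a CellDyn cell analyzer (Abbott Laboratories). The change was expressed as percent increase relative to control animals.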

The test system of experiment [4] is monocytes. Description: Monocytes by complete blood count on day 8, dosing day 1, 3, 5. To be noted: mice, oral gavage, measured on day 8; for change in vivo at 200 mg/kg / change in vivo at 60 mg/kg / change in vivo at 100 mg/kg: Mus musculus, Monocyte, 192 h, read-out: Monocytes % Increase Over Control.
Experiment [5] deals with total white blood cell (WBC). Description: Total white blood cells by complete blood count on day 8, dosing day 1, 3, 5. The settings on record: mice, oral gavage, measured on day 8.
In experiment [6] the test system is neutrophils. Description: Neutrophils by complete blood count on day 8, dosing day 1, 3, 5. To be noted: mice, oral gavage, measured on day 8.
The mark [7] stands for this setting: 100 mg/kg on day 1, day 3 and day 5.
[8] abbreviates: 200 mg/kg on day 1, day 3 and day 5.
The mark [9] stands for this setting: 60 mg/kg on day 1, day 3 and day 5.

Regarding `C[C@H](c1ccccc1)n1c(Cl)c(Cl)c2c(O)c(C(=O)NCC(=O)O)nc(C#N)c21` [Compound L, {[(R)-2,3-Dichloro-7-cyano-4-hydroxy-1-(1-phenyl-ethyl)-1H-pyrrolo[2,3-c]pyridine-5-carbonyl]-amino}-acetic acid], the change in vivo at 100 mg/kg in experiment [1] is 281%; in experiment [2], 469%; in experiment [3] (setting [7]), 262%. For the same molecule, in experiment [3] (setting [7]), the Lymphocytes is recorded as 18.0 10^3 cells/μl. Moreover, the Monocytes in experiment [4] (setting [7]) was 0.0 10^3 cells/μl. For the same molecule, the “Total WBC” value in experiment [5] (setting [7]) is 22.8 10^3 cells/μl. Also, in experiment [6] (setting [7]), the Neutrophils is listed as 4.8 10^3 cells/μl.
For the molecule `COc1ccc(Oc2cccc3c(C#N)nc(C(=O)NCC(=O)O)c(O)c23)cc1` [Compound N, {[1-Cyano-4-hydroxy-5-(4-methoxy-phenoxy)-isoquinoline-3-carbonyl]-amino}-acetic acid], the change in vivo at 200 mg/kg amounted to 125% in experiment [1], 60% in experiment [2], 138% in experiment [3] (setting [8]) and 157% in experiment [4] (setting [8]). Moreover, the Lymphocytes in experiment [3] (setting [8]) is given as 10.7 10^3 cells/μl. Also, the Monocytes in experiment [4] (setting [8]) is listed as 0.2 10^3 cells/μl. In experiment [5] (setting [8]), the “Total WBC” value was 12.0 10^3 cells/μl. Also, the Neutrophils in experiment [6] (setting [8]) is listed as 0.9 10^3 cells/μl.
`N#Cc1nc(C(=O)NCC(=O)O)c(O)c2ccn(Cc3ccc(F)cc3)c12` [Compound O, {[7-Cyano-1-(4-fluoro-benzyl)-4-hydroxy-1H-pyrrolo[2,3-c]pyridine-5-carbonyl]-amino}-acetic acid]: the change in vivo at 60 mg/kg in experiment [1] was 86%; in experiment [2] it was -3%; in experiment [3] (setting [9]), 102%; in experiment [4] (setting [9]), 140%. In experiment [3] (setting [9]), the Lymphocytes is on record as 10.9 10^3 cells/μl. The Monocytes in experiment [4] (setting [9]) is reported as 0.2 10^3 cells/μl. In experiment [5] (setting [9]), the “Total WBC” value is reported as 11.9 10^3 cells/μl. The Neutrophils in experiment [6] (setting [9]) is reported as 0.8 10^3 cells/μl.
With `N#Cc1nc(C(=O)NCC(=O)O)c(O)c2c(Cl)cn(Cc3ccc(F)cc3)c12` [Compound P, {[3-Chloro-7-cyano-1-(4-fluoro-benzyl)-4-hydroxy-1H-pyrrolo[2,3-c]pyridine-5-carbonyl]-amino}-acetic acid], the change in vivo at 100 mg/kg in experiment [1] is 54%; in experiment [2], 18%; in experiment [3] (setting [7]), 60%; in experiment [4] (setting [7]), 33%. The Lymphocytes in experiment [3] (setting [7]) was 9.1 10^3 cells/μl. In addition, the Monocytes in experiment [4] (setting [7]) was 0.1 10^3 cells/μl. For the same molecule, the “Total WBC” value in experiment [5] (setting [7]) is 10.2 10^3 cells/μl. Also, in experiment [6] (setting [7]), the Neutrophils was 0.8 10^3 cells/μl.
`N#Cc1nc(C(=O)NCC(=O)O)c(O)c2c(Cl)c(Cl)n(Cc3ccccc3)c12` [Compound Q, [(1-Benzyl-2,3-dichloro-7-cyano-4-hydroxy-1H-pyrrolo[2,3-c]pyridine-5-carbonyl)-amino]-acetic acid]: the change in vivo at 200 mg/kg worked out at 475% in experiment [1], 233% in experiment [2], 522% in experiment [3] (setting [8]) and 14% in experiment [4] (setting [8]). The Lymphocytes in experiment [3] (setting [8]) is recorded as 36.0 10^3 cells/μl. Moreover, the Monocytes in experiment [4] (setting [8]) was 0.1 10^3 cells/μl. Besides, the “Total WBC” value in experiment [5] (setting [8]) is 38.7 10^3 cells/μl. Also, the Neutrophils in experiment [6] (setting [8]) is recorded as 2.5 10^3 cells/μl.
For `N#Cc1nc(C(=O)NCC(=O)O)c(O)c2ccn(Cc3ccc4ccccc4c3)c12` [Compound R, [(7-Cyano-4-hydroxy-1-naphthalen-2-ylmethyl-1H-pyrrolo[2,3-c]pyridine-5-carbonyl)-amino]-acetic acid], the change in vivo at 100 mg/kg is 290% in experiment [1], 71% in experiment [2], 330% in experiment [3] (setting [7]) and 205% in experiment [4] (setting [7]). In addition, the Lymphocytes in experiment [3] (setting [7]) was 21.4 10^3 cells/μl. Also, the Monocytes in experiment [4] (setting [7]) was 0.3 10^3 cells/μl. Also, the “Total WBC” value in experiment [5] (setting [7]) is 23.0 10^3 cells/μl. In addition, the Neutrophils in experiment [6] (setting [7]) is reported as 1.3 10^3 cells/μl.
As to `O=C(O)CNC(=O)c1ncc2cc(Br)ccc2c1O` [Compound T, [(7-Bromo-4-hydroxy-isoquinoline-3-carbonyl)-amino]-acetic acid], the change in vivo at 60 mg/kg came to 17% in experiment [1], 40% in experiment [2] and 13% in experiment [3] (setting [9]). Besides, in experiment [3] (setting [9]), the Lymphocytes is 6.2 10^3 cells/μl. The Monocytes in experiment [4] (setting [9]) was 0.0 10^3 cells/μl. Also, the “Total WBC” value in experiment [5] (setting [9]) was 7.3 10^3 cells/μl. Further, the Neutrophils in experiment [6] (setting [9]) is given as 1.0 10^3 cells/μl.
With `O=C(O)CNC(=O)c1ncc2cc(Oc3ccc(F)c(F)c3)ccc2c1O` [Compound V, {[7-(3,4-Difluoro-phenoxy)-4-hydroxy-isoquinoline-3-carbonyl]-amino}-acetic acid], the change in vivo at 100 mg/kg is 145% in experiment [1], 132% in experiment [2] and 146% in experiment [3] (setting [7]). Besides, the Lymphocytes in experiment [3] (setting [7]) is 6.1 10^3 cells/μl. The Monocytes in experiment [4] (setting [7]) is 0.1 10^3 cells/μl. In experiment [5] (setting [7]), the “Total WBC” value was 7.1 10^3 cells/μl. The Neutrophils in experiment [6] (setting [7]) is recorded as 0.8 10^3 cells/μl.
`Cc1nc(C(=O)NCC(=O)O)c(O)c2ccc(Cl)cc12` [Compound Y, [(7-Chloro-4-hydroxy-1-methyl-isoquinoline-3-carbonyl)-amino]-acetic acid]: the change in vivo at 200 mg/kg in experiment [1] was 34%; in experiment [2], 200%; in experiment [3] (setting [8]), 17%; in experiment [4] (setting [8]), 700%. Moreover, the Lymphocytes in experiment [3] (setting [8]) is recorded as 7.6 10^3 cells/μl. Also, the Monocytes in experiment [4] (setting [8]) was 0.2 10^3 cells/μl. The “Total WBC” value in experiment [5] (setting [8]) is on record as 9.8 10^3 cells/μl. Further, in experiment [6] (setting [8]), the Neutrophils was 1.9 10^3 cells/μl.
Take `N#Cc1nc(C(=O)NCC(=O)O)c(O)c2ccc(Oc3ccccc3)cc12` [Compound Z, [(1-Cyano-4-hydroxy-7-phenoxy-isoquinoline-3-carbonyl)-amino]-acetic acid]: the change in vivo at 60 mg/kg in experiment [1] was 6%; in experiment [2], 80%; in experiment [3] (setting [9]) it was 0%; in experiment [4] (setting [9]), 200%. Also, in experiment [3] (setting [9]), the Lymphocytes is given as 7.1 10^3 cells/μl. For the same molecule, in experiment [4] (setting [9]), the Monocytes is 0.1 10^3 cells/μl. Further, the “Total WBC” value in experiment [5] (setting [9]) was 8.3 10^3 cells/μl. The Neutrophils in experiment [6] (setting [9]) is given as 1.1 10^3 cells/μl.
